Laboratory results from paper PMC6021390, “A promiscuous cytochrome P450 aromatic O-demethylase for lignin bioconversion” (Nature Communications, 2018).
Like-named read-outs stand apart in the source and are kept apart here.

What was measured:
GcoA = biological target: T1, GcoA (Amycolatopsis sp., UniProt P0DPQ7); assay: Determination of substrate dissociation constants with GcoA (UV/vis spectral shift titration; fluorescence quenching for vanillin); type: binding
T1 construct: GST (N, cleaved yes); made in house; host or cells: E. coli Rosetta 2 (DE3)
T1 sequence (P0DPQ7 1-407): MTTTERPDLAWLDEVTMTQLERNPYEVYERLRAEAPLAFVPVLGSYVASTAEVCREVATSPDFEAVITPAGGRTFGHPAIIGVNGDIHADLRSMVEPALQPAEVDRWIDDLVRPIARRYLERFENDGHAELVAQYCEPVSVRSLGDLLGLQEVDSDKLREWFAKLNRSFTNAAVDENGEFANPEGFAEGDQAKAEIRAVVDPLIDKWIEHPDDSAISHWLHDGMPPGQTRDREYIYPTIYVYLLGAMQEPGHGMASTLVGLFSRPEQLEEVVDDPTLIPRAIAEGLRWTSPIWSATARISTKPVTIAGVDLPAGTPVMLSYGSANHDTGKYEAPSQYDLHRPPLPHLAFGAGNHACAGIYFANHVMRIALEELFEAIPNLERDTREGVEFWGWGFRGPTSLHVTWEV
Experimental: A total of 0–60 µM of substrate analogs, in 0.25 or 0.5 µM aliquots, were titrated into a cuvette containing 1–6 µM GcoA in 25 mM HEPES, 50 mM NaCl, pH 7.5. The spectrum after each substrate addition was recorded, beginning with no substrate bound. The solution reached equilibrium before the next addition. A difference spectrum was made to illustrate the shift from a low-spin aquo-heme complex to the high-spin substrate-bound complex (spectral shift from 417 nm to 388 nm). […] The absorbance at 388 nm was plotted as a function of [substrate], yielding a quadratic curve that was fit to Eq. (7) to determine the KD.7 ΔAbsobs=ΔAbsmax/2EtL0+Et+KD-L0+Et+KD^2-4Et*L0. Where L0, Et, KD, and ΔAbsmax are the ligand concentrations, total protein (subunit) concentration, the equilibrium dissociation constant, and the maximum Abs388–417 nm, respectively. Reported values are the average of 2 or more measurements.
Since the UV/vis spectra of vanillin and heme overlap, fluorescence quenching was monitored to determine the KD. […] Fluorescence emission intensity was followed upon titration of vanillin (0–350 µM) after equilibrium had been established. The % fluorescence quenched, Eq. (8), was plotted as a function of vanillin and fit to Eq. (7) above, replacing ΔAbsmax with ΔFluorescencemax.8 %Fquenched=Fmax-Fintensity/Fmax×100%.

GcoAB [1] = biological target: T2, GcoAB (Amycolatopsis sp., UniProt P0DPQ7); assay: Aldehyde product determination (tryptophan assay for formaldehyde, dehydrogenase assay for acetaldehyde) versus NADH consumed; type: biochemical, Amycolatopsis sp. ATCC 39116; parameters: GST (N, cleaved yes); made in house; host or cells: E. coli Rosetta 2 (DE3); conditions: formaldehyde (acetaldehyde for guaethol); saturating substrate, 300 μM NADH, 0.2 μM GcoAB
T2 sequence (P0DPQ7 1-407): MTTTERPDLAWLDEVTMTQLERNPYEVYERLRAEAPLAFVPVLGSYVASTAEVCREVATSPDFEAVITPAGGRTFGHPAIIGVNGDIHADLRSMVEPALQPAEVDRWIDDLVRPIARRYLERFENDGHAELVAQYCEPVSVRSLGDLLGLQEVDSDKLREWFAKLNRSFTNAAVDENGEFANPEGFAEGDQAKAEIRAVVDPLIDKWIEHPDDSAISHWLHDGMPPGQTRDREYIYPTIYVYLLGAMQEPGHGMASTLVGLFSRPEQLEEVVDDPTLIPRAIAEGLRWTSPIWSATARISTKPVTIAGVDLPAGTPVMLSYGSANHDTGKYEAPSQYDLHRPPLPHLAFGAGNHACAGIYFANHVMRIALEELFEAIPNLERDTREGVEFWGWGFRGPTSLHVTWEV
T2 sequence (P0DPQ8 1-334 partner): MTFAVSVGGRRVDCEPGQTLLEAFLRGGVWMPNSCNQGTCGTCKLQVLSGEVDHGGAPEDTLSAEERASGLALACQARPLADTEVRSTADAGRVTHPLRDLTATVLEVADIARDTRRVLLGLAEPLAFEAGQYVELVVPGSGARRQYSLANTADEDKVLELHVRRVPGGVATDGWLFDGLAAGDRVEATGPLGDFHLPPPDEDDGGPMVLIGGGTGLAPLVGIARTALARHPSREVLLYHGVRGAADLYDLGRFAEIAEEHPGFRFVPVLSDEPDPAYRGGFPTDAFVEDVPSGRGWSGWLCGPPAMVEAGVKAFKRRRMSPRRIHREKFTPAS
Excerpt: For the quantification of formaldehyde (demethylation) or acetaldehyde (de-ethylation) production, the reaction was monitored via UV/vis or fluorescence (in the case of vanillin) using the same set of conditions as outlined above for specific activity determination. After eight minutes, aliquots of the sample were removed and carried onto the respective aldehyde detection assay. For reactions that produced formaldehyde (e.g., all substrates except guaethol), a colorimetric tryptophan assay was used, described previously. Briefly, 200 µL of the reaction was quenched by adding 200 µL of 0.1% tryptophan solution in 50% ethanol, 200 µL 90% sulfuric acid and 40 µL of 1% FeCl3. The solution was then incubated in a heating block for 90 min at 70 °C. After cooling, the absorbance was read at 575 nm and the [formaldehyde] calculated by comparing to a standard curve made with 0–320 µM formaldehyde. A reaction with just the assay components was treated in the same manner as the reaction samples and used as a baseline. Control reactions included everything but GcoA/B, catalase, and substrate. Reported values are the average of ≥3 measurements.
[Acetaldehyde] produced during the dealkylation of guaethol was also determined by using a colorimetric assay and a generated acetaldehyde standard curve. A kit from BioAssays was used. Briefly, 20 µL of the reacted sample was transferred to a 96-well plate and 80 µL of the working reagent, consisting of NAD/MTT and aldehyde dehydrogenase, was added. The reaction was incubated for 30 min at room temperature and the absorbance read at 565 nm. Aldehyde dehydrogenase and NAD react with acetaldehyde to produce acetic acid and NADH. […] Control reactions included samples without substrate and/or aldehyde dehydrogenase. Reported values are the average of ≥3 measurements.

GcoAB [2] = biological target: T2, GcoAB; assay: HPLC quantification of demethylated aromatic product versus NADH consumed; type: biochemical, Amycolatopsis sp. ATCC 39116; parameters: GST (N, cleaved yes); made in house; host or cells: E. coli Rosetta 2 (DE3); conditions: saturating substrate, 300 μM NADH, 0.2 μM GcoAB
Experimental: Analyte analysis of samples was performed on an Agilent 1200 LC system (Agilent Technologies, Santa Clara, CA) equipped with a G1315A diode array detector (DAD). Each sample and standard was injected at a volume of 10 μL onto a Phenomenex Luna C18(2) column 5 μm, 4.6 × 150 mm column (Phenomenex, Torrance, CA). The column temperature was maintained at 30 °C and the buffers used to separate the analytes of interest was 0.05% acetic acid in water (A)/ acetonitrile (B). The separation was carried out using a gradient program of: (A) = 99% and (B) = 1% at time t = 0; (A) = 99% and (B) = 1% at time t = 5, (A) = 50% and (B) = 50% at t = 35 min; (A) = 1% and (B) = 99% at t = 35.01 min; (A) = 99% and (B) = 1% at t = 37.01 min; (A) = 99% and (B) = 1% at t = 47.00 min. The flow rate was held constant at 0.6 mL min^−1 resulting in a run time of 47 min. Calibration curve concentration for each analyte varied between the ranges of 2.5–200 µg L^−1. A DAD wavelength of 225 nm was used for analysis of the analytes of interest. […] A minimum of 3–5 calibration levels was used with an r^2 coefficient of 0.995 or better for each analyte and a check calibration standard (CCS) was analyzed every 10 samples to insure the integrity of the initial calibration.

LigX = test system: T3, LigX; assay: Cited steady-state O-demethylation of 5,5'-dehydrodivanillate (10-500 uM) by 0.2 uM LigXa, 6 uM LigXc and 0.4 uM LigXd with 500 uM NADH in FE22 buffer, pH 6.0, 30 °C, air.; type: biochemical; conditions: cited from earlier work
T3 construct: LigXa with LigXc and LigXd

GcoAB [3] = biological target: T2, GcoAB
Experimental: The demethylation of guaiacol and substrate analogs was continuously monitored under steady-state conditions. […] A total of 100 µg/mL catalase was added to each reaction to capture any H2O2 formed during the uncoupled reaction. […] A total of 20–300 µM guaiacol (preferred substrate) or an alternate substrate from a 2.5 mM stock dissolved in DMSO was added and the reaction was monitored via measurement of UV/vis spectra for several minutes. […] A plot of vi vs [guaiacol] was fit to Eq. (2) to obtain kcat, KM, and kcat/KM. For specific activity determination, the above method was used but with saturating (300 µM) guaiacol. […] Reported values are the average of ≥3 measurements and reported errors are standard deviations.
Reactions with vanillin were performed in the same manner described above.

[4] = 1–6 μM GcoA, 25 °C, 25 mM HEPES, 50 mM NaCl, pH 7.5, read-out: Compound KD

Row | Compound | Kd (GcoA; [4]) [µM] | Aldehyde produced per NADH consumed (GcoAB [1]) | Demethylated product: amount produced per NADH consumed (GcoAB [2]) | Km (LigX) [µM] | reduction in kcat compared to guaiacol (GcoAB [3]) | Kd (GcoA; binding to GcoA, read-out: KD) [µM] | specific activity (GcoAB [3]; 300 μM guaiacol, 0.2 μM GcoA/B, 300 μM NADH, pH 7.5, 25 °C) | kcat (GcoAB [3]; Supplementary Figure 20, 0.2 μM GcoA/B, 300 μM NADH, ambient O2, pH 7.5, 25 °C) [s⁻¹] | kcat (GcoAB [3]; Supplementary Table 4, 0.2 μM GcoA/B, 300 μM NADH, 5-300 μM guaiacol, pH 7.5, 25 °C, air) [s⁻¹]
1 | COc1ccccc1C [2-methylanisole] | 1 ± 0.1 | 0.90 ± 0.1 | 0.20 ± 0.04 | – | – | – | – | – | –
2 | COc1cccc(O)c1O [3-methoxycatechol] | 3.7 ± 0.1 | 0.90 ± 0.04 | 0.97 ± 0.002 | – | – | – | – | – | –
3 | COc1cc(C(=O)O)cc(-c2cc(C(=O)O)cc(OC)c2O)c1O [5,5'-dehydrodivanillate] | – | – | – | 64 | – | – | – | – | –
4 | COc1ccccc1 [Anisole] | 1.7 ± 0.2 | 1.1 ± 0.01 | 0.62 ± 0.1 | – | – | – | – | – | –
5 | CCOc1ccccc1O [Guaethol] | 0.07 ± 0.03 | 1.5 ± 0.14 | 1.4 ± 0.3 | – | almost fivefold reduction | – | – | – | –
6 | COc1ccccc1O [Guaiacol, 2-methoxyphenol] | 0.006 ± 0.002 | 1.2 ± 0.15 | 1.2 ± 0.3 | – | – | 0.006 | 4.6 mM NADH sec-1 [mM GcoA]-1 | 6.8 ± 0.5 | 6.8 ± 0.5
